# Laboratory results taken from patent US20210401931A1, “METHODS AND MATERIALS FOR TREATING CANCER” (Mayo Foundation for Medical Education and Research, priority 2018, published 2021).
# Ends that are not written are not given here.
# System: PTEN-CaP8 tumors
# Assay: FACS of tumor-infiltrating immune cells in PTEN-CaP8 tumors
# Format: in vivo, mouse
# Settings: 12 Gy
# Experimental: FIGS. 6A-J. The small S249/T252 phosphorylation-mimicking polypeptide of RB blocks irradiation-induced PD-L1 expression and inhibits cancer immune evasion. (A, B) PC-3 cells were infected with lentivirus expressing control shRNA or p65-specific or shRNA. 24 hours after puromycin selection, cells were treated with or without gamma irradiation (IR) (12 Gy). 48 hours after IR treatment, cells were harvested for western blotting analysis (A) and RT-qPCR analysis (B). All data were shown as mean values±SD (n=3). * P<0.05, ** P<0.01, *** P<0.001. (C, D) PC-3 cells were treated with without gamma irradiation (12 Gy). Cells were harvested at the indicated time point for western blotting analysis (C) and RT-qPCR analysis (D). All data were shown as mean values±SD (n=3). * P<0.05, ** P<0.01, *** P<0.001. (E) Western blot analysis of WCL and co-IP samples in PC-3 cells 48 hours after treated with or without gamma irradiation (12 Gy). […] (J) The absolute number of CD45^+CD8^+ T cells, CD45^+CD4^+ T cells, and CD11b^+Gr1^+ myeloid cells of implanted PTEN-CaP8 in tumors treated with indicated agents was analyzed by FACS. […]
# For flow cytometry analysis of mouse tissue samples, tumors were cut into small pieces and digested with 2 mg/mL collagenase (Sigma) in DMEM for 1 hour at 37° C. […] After incubated with antibody for 30 minutes, cells were washed with PBS and analyzed on a flow cytometer.
substance,measurement,value
"RL-S249D/T252D: S249/T252 phospho-mimicking R-Linker (RL) peptide: fragment of RB-N containing 21 amino acids surrounding S249/T252, expressed SFB-tagged or by lentivirus (NGDPRDPRRGQNRSARIAKQL; also: expressed SFB-tagged (tag left off))","CD11b+Gr1+ myeloid cells in tumors, agent combined with irradiation",sharp decrease
same,"CD45+CD8+ and CD45+CD4+ T cell infiltration in tumors, agent combined with irradiation",dramatic increase
